These results are taken from PubChem BioAssay (NCI).

Among the test systems are PC-3 prostate; MOLT-4 leukemia; CCRF-CEM leukemia; HT29 colon; SF-268 CNS; M14 melanoma; OVCAR-5 ovarian; COLO 205 colon; A498 renal; HL-60(TB) leukemia.
What all share (test): inhibition of tumour cell growth, NCI panel, 48 h

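Step 1: Grow cells in 96-well plates. Step 2: Expose to compound for 48 hours at 5 concentrations. Step 3: Interpolate endpoints linearly; if unreached, use highest concentration. Here, GI50 denotes the concentration required for 50% inhibition of growth. TGI denotes the concentration required for complete inhibition of growth.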

Consider `O=S(=O)(NC(=S)Nc1ccccc1)c1ccc(N2N=C3c4ccccc4CC3C2c2cccs2)cc1` (configuration not stated), for which the GI50 in the test with PC-3 prostate is 22.9 µM; in the test with MOLT-4 leukemia it was 17.5 µM; with CCRF-CEM leukemia it was 30.5 µM; in the test on HT29 colon it was 36.2 µM; in the test with SF-268 CNS, 30.7 µM; in the test with M14 melanoma, 22.7 µM. Moreover, the GI50 with OVCAR-5 ovarian is 17.9 µM; in the test with COLO 205 colon, 41.9 µM. Moreover, the TGI was 54.4 µM in the test with PC-3 prostate; more than 100 µM in the test with MOLT-4 leukemia; 85.9 µM with CCRF-CEM leukemia; more than 100 µM with HT29 colon; more than 100 µM in the test with SF-268 CNS; 46.3 µM with M14 melanoma. For the same compound, the figures for the TGI with OVCAR-5 ovarian and in the test with COLO 205 colon were 41.1 µM and more than 100 µM, respectively.
For `Cc1ccc(S(=O)(=O)Oc2ccc3c4c(c(=O)oc3c2)CCCCC4)cc1`, the GI50 was 4.26 µM with PC-3 prostate; 6.16 µM in the test with MOLT-4 leukemia; 5.18 µM in the test with CCRF-CEM leukemia; 4.06 µM in the test on HT29 colon; more than 100 µM in the test with SF-268 CNS; more than 100 µM in the test with M14 melanoma. The GI50 in the test with OVCAR-5 ovarian was more than 100 µM; with COLO 205 colon, 4.05 µM; in the test on A498 renal it was 6.21 µM. Besides, the TGI in the test on PC-3 prostate, in the test on MOLT-4 leukemia, in the test with CCRF-CEM leukemia, in the test with HT29 colon, with SF-268 CNS and in the test on M14 melanoma was more than 100 µM in each case. Further, the TGI with OVCAR-5 ovarian, in the test on COLO 205 colon and in the test with A498 renal was more than 100 µM each time.
On to `COc1ccc(C2NCCc3c2[nH]c2ccccc32)cc1CN1CCN(c2ccc(F)cc2)CC1` (configuration not stated), for which the GI50 in the test with HL-60(TB) leukemia is 2.14 µM; in the test on PC-3 prostate, 2.21 µM; in the test on MOLT-4 leukemia, 1.97 µM; in the test on CCRF-CEM leukemia, 2.8 µM; in the test with HT29 colon, 1.7 µM; with SF-268 CNS, 2.57 µM. Besides, the GI50 was 2.13 µM in the test with OVCAR-5 ovarian, 1.93 µM in the test on COLO 205 colon and 0.399 µM with A498 renal. In addition, the TGI with HL-60(TB) leukemia worked out at 4.77 µM; in the test with PC-3 prostate, 5.35 µM; with MOLT-4 leukemia it was 5.25 µM; with CCRF-CEM leukemia, 7.19 µM; in the test on HT29 colon it was 3.49 µM; with SF-268 CNS, 7.82 µM. Further, the results for the TGI with OVCAR-5 ovarian, in the test with COLO 205 colon and with A498 renal were 5.2 µM, 3.65 µM and 4.21 µM, respectively.
As to `CC(=O)NNc1nc(C)c(C(/C=C/c2ccc(Cl)cc2)=N\NS(=O)(=O)c2ccc(C)cc2)s1`, the TGI in the test on HL-60(TB) leukemia, in the test with MOLT-4 leukemia, with CCRF-CEM leukemia, in the test on HT29 colon, with SF-268 CNS and in the test on M14 melanoma was more than 100 µM in each case. In addition, the TGI in the test with OVCAR-5 ovarian, in the test with COLO 205 colon and in the test on A498 renal was more than 100 µM in each case.
Regarding `CCOc1ccccc1NC(=O)CCc1nnc2s/c(=C\CCc3ccccc3)c(=O)n12`, the TGI with HL-60(TB) leukemia, in the test on MOLT-4 leukemia, in the test with CCRF-CEM leukemia, in the test with HT29 colon, in the test on SF-268 CNS and in the test on M14 melanoma was more than 100 µM throughout. The TGI in the test with OVCAR-5 ovarian, in the test on COLO 205 colon and in the test with A498 renal was more than 100 µM in each case.
As for `O=C([O-])c1ccc2c(c1)-c1nc-2nc2[n-]c(nc3nc(nc4[n-]c(n1)c1ccc(C(=O)[O-])cc41)-c1cc(C(=O)[O-])ccc1-3)c1ccc(C(=O)[O-])cc21.[Fe+2]`, the GI50 is more than 22.9 µM with HL-60(TB) leukemia; more than 50 µM with MOLT-4 leukemia; more than 22.2 µM with CCRF-CEM leukemia; more than 50 µM in the test on HT29 colon; more than 50 µM with SF-268 CNS; more than 50 µM in the test with M14 melanoma. For the same compound, the GI50 in the test on OVCAR-5 ovarian is more than 50 µM; in the test with COLO 205 colon, more than 22.2 µM; with A498 renal, more than 50 µM. The TGI was more than 30.5 µM with HL-60(TB) leukemia; more than 50 µM in the test with MOLT-4 leukemia; more than 31.3 µM in the test with CCRF-CEM leukemia; more than 50 µM with HT29 colon; more than 50 µM with SF-268 CNS; more than 50 µM with M14 melanoma. Further, the TGI with OVCAR-5 ovarian is more than 50 µM; in the test on COLO 205 colon, more than 31.2 µM; in the test with A498 renal, more than 50 µM.
In the case of `FC(F)(F)c1ccc(C=NC23CC4CC(CC(C4)C2)C3)cc1`, the TGI with HL-60(TB) leukemia, in the test on MOLT-4 leukemia, in the test with CCRF-CEM leukemia, with HT29 colon, with SF-268 CNS and with M14 melanoma was more than 100 µM throughout. Further, the TGI with OVCAR-5 ovarian, with COLO 205 colon and with A498 renal was more than 100 µM each time.
Turning to `NCCNCC(O)CO` (configuration not stated), the TGI in the test on HL-60(TB) leukemia, with PC-3 prostate, in the test with MOLT-4 leukemia, with HT29 colon, in the test with SF-268 CNS and in the test on M14 melanoma was more than 100 µM each time. Also, the TGI in the test on OVCAR-5 ovarian, in the test with COLO 205 colon and with A498 renal was more than 100 µM throughout.
With `CC1CCCC(C(O)CC2CC(=O)N(c3ccccc3)C(=O)C2)C1=O` (configuration not stated), the TGI in the test with HL-60(TB) leukemia, in the test on MOLT-4 leukemia, in the test with CCRF-CEM leukemia, with HT29 colon, in the test with SF-268 CNS and in the test with M14 melanoma was more than 100 µM throughout. The TGI in the test with OVCAR-5 ovarian, with COLO 205 colon and in the test with A498 renal was more than 100 µM throughout.
On to `N#C/C(=C\c1ccc(Br)cc1)n1nnc2cccc(F)c21`, for which the GI50 with PC-3 prostate was 0.943 µM; with CCRF-CEM leukemia it was 0.444 µM; in the test with SF-268 CNS, 1.73 µM; in the test on OVCAR-5 ovarian, 1.77 µM; with COLO 205 colon it was 1.98 µM; with A498 renal, 2.04 µM. The TGI in the test with PC-3 prostate was 3.17 µM; in the test on CCRF-CEM leukemia, more than 100 µM; with SF-268 CNS, 3.51 µM; in the test on OVCAR-5 ovarian, 3.48 µM; in the test on COLO 205 colon it was 5.02 µM; in the test with A498 renal it was 4.23 µM.
`COc1cc2c3c(n(CCCN4CCN(C)CC4)c(=O)c2cc1OC)-c1cc2c(cc1C3=O)OCO2`: the GI50 is 19.5 µM with HL-60(TB) leukemia; 15.8 µM in the test on PC-3 prostate; 2.44 µM in the test with CCRF-CEM leukemia; 16.9 µM with HT29 colon; 11.9 µM in the test on SF-268 CNS; 17.6 µM in the test with OVCAR-5 ovarian. Also, in the test with COLO 205 colon, the GI50 is 10.3 µM. Moreover, the TGI in the test with HL-60(TB) leukemia was 57.6 µM; in the test with PC-3 prostate, 36.4 µM; with MOLT-4 leukemia it was 0.0353 µM; in the test with CCRF-CEM leukemia, 17.7 µM; in the test with HT29 colon, more than 100 µM; in the test on SF-268 CNS it was 41.8 µM. For the same compound, the TGI turned out to be 31.4 µM in the test with OVCAR-5 ovarian and 40.3 µM in the test with COLO 205 colon.
